Literature values in US10654880B2, “Methods for preparation of glycosphingolipids and uses thereof” (priority 2011, dated 2020).

Test system: breast cancer tumors (4T1 cell line)
Details: breast cancer-bearing mice (4T1), relative to untreated group

SMILES: CCCCCCCCCCCCCCCCCCCCCCCCCC(=O)N[C@@H](CO[C@H]1O[C@H](CO)[C@H](O)[C@H](O)[C@H]1O)[C@H](O)[C@H](O)CCCCCCCCCCCCCC [α-GalCer, alpha-galactosylceramide]
- inhibition of tumor growth rate: 50%
